{"source": "patent US9204640B2", "about": "“2-acyloxy-pyrrolin-4-ones” (BAYER INTELLECTUAL PROPERTY GMBH, priority 2011, dated 2015)", "assay_type_in_all_cases": "in vivo", "key": {"[1]": {"system": "Phaedon cochleariae", "test": "Phaedon test (PHAECO spray treatment)", "details": "application rate 500 g/ha, after 7 days, Chinese cabbage leaf discs", "protocol": "Phaedon Test ([…] Spray Treatment) [table] To produce a suitable preparation of active compound, 1 part by weight of active compound is mixed with the stated amount of solvent and emulsifier, and the concentrate is diluted with emulsifier-containing water to the desired concentration. Discs of Chinese cabbage (Brassica pekinensis) are sprayed with an active compound preparation of the desired concentration and, after drying, populated with larvae of the mustard beetle (Phaedon cochleariae). After 7 days, the effect in % is determined 100% means that all beetle larvae have been killed; 0% means that none of the beetle larvae have been killed. Phaedon Test ([…] Spray Treatment) To produce a suitable preparation of active compound, 1 part by weight of active compound is mixed with the stated amount of solvent and emulsifier, and the concentrate is diluted with emulsifier-containing water to the desired concentration. Discs of Chinese cabbage (Brassica pekinensis) are sprayed with an active compound preparation of the desired concentration and, after drying, populated with larvae of the mustard beetle (Phaedon cochleariae). After the desired period of time, the activity in % is determined. 100% means that all beetle larvae have been killed; 0% means that none of the beetle larvae have been killed."}, "[2]": {"system": "Spodoptera frugiperda", "test": "Spodoptera frugiperda test (SPODFR spray treatment)", "protocol": "Spodoptera Frugiperda Test (SPODFR Spray Treatment) [table] To produce a suitable preparation of active compound, 1 part by weight of active compound is mixed with the stated amount of solvent and emulsifier, and the concentrate is diluted with emulsifier-containing water to the desired concentration. Discs of corn leaves (Zea mays) are sprayed with an active compound preparation of the desired concentration and, after drying, populated with caterpillars of the armyworm (Spodoptera frugiperda). After 7 days, the effect in % is determined. 100% means that all caterpillars have been killed; 0% means that none of the caterpillars have been killed. Spodoptera Frugiperda Test (SPODFR Spray Treatment) To produce a suitable preparation of active compound, 1 part by weight of active compound is mixed with the stated amount of solvent and emulsifier, and the concentrate is diluted with emulsifier-containing water to the desired concentration. Discs of corn leaves (Zea mays) are sprayed with an active compound preparation of the desired concentration and, after drying, populated with caterpillars of the armyworm (Spodoptera frugiperda). After the desired period of time, the activity in % is determined. 100% means that all caterpillars have been killed; 0% means that none of the caterpillars have been killed."}, "[3]": {"system": "Myzus persicae", "test": "Myzus test (MYZUPE spray treatment)", "details": "application rate 500 g/ha, after 5 days, Chinese cabbage leaf discs", "how_it_was_run": "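Chinese cabbage leaf discs carrying all stages of green peach aphid sprayed with compound diluted in emulsifier-containing water to the desired concentration. Mortality scored as % after 5 days, where 100% means all aphids dead and 0% none.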"}, "[4]": {"system": "Tetranychus urticae", "test": "Tetranychus test (TETRUR spray treatment; OP-resistant in Example 10)", "protocol": "Tetranychus Test (TETRUR Spray Treatment)\nTo produce a suitable preparation of active compound, 1 part by weight of active compound is mixed with the stated amount of solvent and emulsifier, and the concentrate is diluted with emulsifier-containing water to the desired concentration. Discs of bean leaves (Phaseolus vulgaris) which are infested by all stages of the greenhouse red spider mite (Tetranychus urticae) are sprayed with an active compound preparation of the desired concentration.\nAfter 5 days, the effect in % is determined. 100% means that all of the spider mites have been killed; 0% means that none of the spider mites have been killed.\nTetranychus Test, OP-Resistant (TETRUR Spray Treatment)\nTo produce a suitable preparation of active compound, 1 part by weight of active compound is mixed with the stated amount of solvent and emulsifier, and the concentrate is diluted with emulsifier-containing water to the desired concentration.\nDiscs of bean leaves (Phaseolus vulgaris) which are infested by all stages of the greenhouse red spider mite (Tetranychus urticae) are sprayed with an active compound preparation of the desired concentration.\nAfter the desired period of time, the activity in % is determined. 100% means that all of the spider mites have been killed; 0% means that none of the spider mites have been killed."}, "[5]": {"system": "Boophilus microplus", "test": "Boophilus microplus test (BOOPMI injection)", "details": "20 μg/animal, after 7 days", "protocol": "Boophilus Microplus Test (BOOPMI Injection) [table] To prepare an appropriate active compound formulation, 10 mg of active compound are mixed with 0.5 ml of solvent and the concentrate is diluted with solvent to the desired concentration. The solution of active compound is injected into the abdomen (Boophilus microplus), and the animals are transferred into dishes and kept in a climatized room. The activity is assessed by deposition of fertile eggs. After 7 days, the effect in % is determined. 100% means that none of the ticks has laid any fertile eggs."}, "[6]": {"system": "Lucilia cuprina larvae", "test": "Lucilia cuprina test (LUCICU)", "details": "100 ppm, after 2 days", "protocol": "Lucilia Cuprina Test (LUCICU) [table] To prepare an appropriate active compound formulation, 10 mg of active compound are mixed with 0.5 ml of dimethyl sulfoxide and the concentrate is diluted with water to the desired concentration. Vessels containing horse meat treated with the active compound preparation of the desired concentration are populated with about 20 Lucilia cuprina larvae. After 2 days, the kill in % is determined. 100% means that all of the larvae have been killed; 0% means that none of the larvae have been killed."}, "[7]": {"system": "Liriomyza trifolii", "test": "Liriomyza trifolii spray test (LIRITR)", "details": "20 g/ha; 7dat", "protocol": "Liriomyza Trifolii-Spray Test ([…]) To produce a suitable preparation of active compound, 1 part by weight of active compound is mixed with the stated amount of solvent and emulsifier, and the concentrate is diluted with emulsifier-containing water to the desired concentration. If the addition of ammonium salts or/and penetrants is required, these are in each case added in a concentration of 1000 ppm to the solution of the preparations. Discs of bean leaves (Phaseolus vulgaris) which are infested by all stages of the leaf-mining fly (Liriomyza trifolii) are sprayed with an active compound preparation of the desired concentration. After the desired period of time, the activity in % is determined. 100% means that all of the leaf-mining flies have been killed; 0% means that none of the leaf-mining flies have been killed."}, "[8]": {"system": "Bemisia tabaci", "test": "Bemisia tabaci spray test (BEMITA)", "details": "20 g/ha; 7dat", "protocol": "Bemisia Tabaci-Spray Test ([…]) To produce a suitable preparation of active compound, 1 part by weight of active compound is mixed with the stated amount of solvent and emulsifier, and the concentrate is diluted with emulsifier-containing water to the desired concentration. Discs of cotton leaves (Gossypium hirsutum) which are infested by all stages of the whitefly (Bemisia tabaci) are sprayed with an active compound preparation of the desired concentration. After the desired period of time, the activity in % is determined. 100% means that all the whiteflies have been killed; 0% means that none of the whiteflies have been killed."}}, "data": [{"compound": "CCOC(=O)OC1=C(c2c(C)cc(C)cc2C)C(=O)C2(CCC(COC)CC2)N1", "note": "(stereo not shown) [I-b-3]", "values": [{"measurement": "effect in % (beetle larvae killed)", "setting": "[1]", "value": 100, "unit": "%"}, {"measurement": "% Activity SPODFR", "setting": "[2]; 500 g/ha, 7dat", "value": 100, "unit": "%"}, {"measurement": "effect in % (caterpillars killed)", "setting": "[2]; application rate 500 g/ha, after 7 days, corn leaf discs", "value": 100, "unit": "%"}, {"measurement": "effect in % (aphids killed)", "setting": "[3]", "value": 90, "unit": "%"}, {"measurement": "% Activity TETRUR", "setting": "[4]; 20 g/ha, 5dat, OP-resistant", "value": 80, "unit": "%"}, {"measurement": "effect in % (spider mites killed)", "setting": "[4]; application rate 100 g/ha, after 5 days, bean leaf discs", "value": 90, "unit": "%"}, {"measurement": "efficacy in % (deposition of fertile eggs)", "setting": "[5]", "value": 100, "unit": "%"}, {"measurement": "kill in % (larvae)", "setting": "[6]", "value": 90, "unit": "%"}, {"measurement": "% Activity LIRITRI", "setting": "[7]", "value": 80, "unit": "%"}, {"measurement": "% Activity BEMITA", "setting": "[8]", "value": 72, "unit": "%"}]}]}
